{
  "source": "patent US11844801B2",
  "about": "“Oral compositions of MK2 pathway inhibitor for treatment of immune conditions” (priority 2020, dated 2023)",
  "key": {"IL-10": {"system": "IL-10", "experiment": "Ex vivo stimulated IL-10 in blood of subjects dosed 80 mg or 120 mg", "design": "species or system human", "conditions": "80 mg or 120 mg BID", "quoted_text": "Methods: Safety, pharmacokinetics (PK) and pharmacodynamics (PD) were assessed in two cohorts of subjects in a randomized, observer-blind, placebo-controlled study in male and female healthy subjects aged 18-55 (n=77). The study consisted of twenty (20) subjects enrolled into 2 cohorts. […] The final dose was administered in the morning on Day 7. Blood samples were obtained Day 1—before dosing, Day 1—4 hours after dosing and Day 1—12 hours after dosing and Day 7—before dosing, Day 7—4 hours after dosing, day 7—12 hour after dosing and Day 7—24 hours after dosing for each subject."}, "IL-1β [1]": {"system": "IL-1β", "experiment": "Ex vivo LPS-stimulated IL-1β in blood of dosed healthy subjects, PK/PD inhibitory Emax model", "design": "species or system human", "experimental": "(§1) Blood samples of 10 mL were collected for PD analysis. For the SAD cohorts, blood was collected before dosing and 1, 12, and 24 hours after dosing. For the MAD cohorts, on day 1 blood was collected before the morning dose and 4 and 12 hours after the morning dose (prior to the evening dose); on day 7, blood was collected before the morning dose and 4 and 12 hours after the morning dose.\n(§2) Additional details of the assays for analyzing p-HSP27 and cytokines are included in the Supplementary Information.\n(§3) Pharmacodynamics. PD data analysis was conducted using Microsoft Excel 2010 (Microsoft, Redmond, WA), Meso Scale Discovery Workbench® analysis software (Rockville, MD), and Phoenix WinNonlin, version 8.2.\n(§4) Sample Preparation for Cytokine Analysis. For each sample, 180 μL aliquots were transferred into 7 wells of a round bottom 96 well tissue culture polystyrene low evaporation plate. […] No outer wells on the plates were used and all wells surrounding the samples contained 200 μL of phosphate buffered saline.\n(§5) DMSO was added to all wells in groups ‘A’ and ‘C’ to a final concentration of 0.1% ([…] of a 2% DMSO solution in DMEM containing 10% FBS and 1% penicillin/streptomycin/glutamine). […] Samples were mixed gently for 30 seconds on a plate shaker using pin tools, then placed in an incubator at 37° C./5% CO2 for 1 hour.\n(§6) Samples in groups ‘A’ and ‘B’ were stimulated with lipopolysaccharide at a final concentration of 100 ng/mL. A stock solution of lipopolysaccharide at 1 mg/mL in DMEM containing 10% FBS and 1% penicillin/streptomycin was diluted to […] in DMEM containing 10% FBS and 1% penicillin/streptomycin, and […] of this working solution was added per well of blood for all samples in groups ‘A’ and ‘B’. […] of DMEM containing 10% FBS only was added per well of blood for all samples in group ‘C’ (unstimulated samples). Samples were mixed gently for 30 seconds on a plate shaker using pin tools, then placed in an incubator at 37° C./5% CO2 for 5 hours.\n(§7) Following the incubation, the plates were removed from the incubator and sealed with adhesive clear plate seals. The plates were then centrifuged for 10 minutes at 1800×g at room temperature. […] of plasma was removed from each well and transferred to a 96-well polypropylene round bottom master plate, which was then sealed and frozen at −80° C. until all samples from the respective cohort were generated. Once all samples from a given cohort were generated, the samples were analyzed for cytokine (TNF-α, IL-1b, IL-6, and IL-8) production using Meso Scale Discovery Technology.\n(§8) Analysis of Cytokine Levels Using Meso Scale Discovery Technology. All lipopolysaccharide plasma samples were analyzed for cytokine production with a V-Plex Human Proinflammatory Panel II (4-Plex) Kit from Meso Scale Discovery (Rockville, MD). The master plates containing the plasma samples were thawed on ice, and a daughter plate consisting of a 25-fold dilution of each plasma sample (3 μL of plasma plus 72 μL of Meso Scale Discovery Diluent 2) was generated for each master plate. The diluted plasma samples from the daughter plates were used in the cytokine analysis. The Meso Scale Discovery 4-plex plates were washed 3 times with 150 μL/well of wash buffer (1×KPL phosphate buffered saline with Tween 20 from SeraCare [Milford, MA]). Prepared calibrators and the samples from the daughter plates were added to the washed Meso Scale Discovery 4-plex plates at 50 μL/well. The 4-plex plates were sealed and shaken overnight at 4° C.\n(§9) After the overnight incubation, the samples were removed by decanting. The 4-plex plates were then washed 3 times with 150 μL/well of wash buffer. […]"}, "IL-1α": {"system": "IL-1α", "experiment": "Human PBMC LPS stimulated IL-1α biosynthesis", "assay_type": "cell-based", "conditions": "hPBMC, 100 ng/mL, 24 hr"}, "TNF-α [2]": {"system": "TNF-α", "experiment": "LPS stimulated TNF-α production in human whole blood", "assay_type": "cell-based", "experimental": "(§10) Compounds were serially diluted in 100% DMSO (Sigma-Aldrich, D2650) followed by a 50× dilution into DMEM/10% FBS (Gibco, 11965/26140). Vehicle consisted of DMSO at a final assay concentration of 0.1%. Pin tools (V&P Scientific, Inc., VP246) were placed in the wells and the plate was placed at 37° C. with 5% CO2, with gently shaking for five minutes, then pin tools were removed and saved. […] Pin tools were placed in the wells in the same orientation as the previous step and gently shook for five minutes at 37° C. with 5% CO2, then removed. […] The plasma was harvested and assayed for TNF-α, IL-1β, and IL-6 using Meso Scale Discovery Technology V-plex human cytokine kits according to the kit protocol. The kit plates were read using an MSD Sector S 6000 instrument. Calculations to establish cytokine calibration curves and to determine analyte concentrations in the samples were carried out using the MSD DISCOVERY WORKBENCH® analysis software."}, "TNF-α [3]": {"system": "TNF-α", "experiment": "Ex vivo LPS-stimulated TNF-α in blood of dosed healthy subjects, PK/PD inhibitory Emax model", "design": "species or system human", "experimental": "as §1, §2, §3, §4, §5, §6, §7, §8, §9"}, "IL-1β [4]": {"system": "IL-1β", "experiment": "R848 stimulated IL-1β production in human whole blood", "assay_type": "cell-based", "conditions": "R848, 0.5 ug/mL, 5 hr", "experimental": "Human whole blood assays were performed as described above with the exceptions listed below. […] Compounds were serially diluted in 100% DMSO (Sigma-Aldrich, D2650) followed by a 10× dilution into RPMI (Gibco, 11875). After the one-hour incubation with the compounds or vehicle, 2 μL of R848 (InvivoGen, tlrl-r848) in RPMI (Gibco, 11875) was added for a final concentration of 0.5 μg/mL to each well except for the no stimulus wells. After five hours of incubation with R848, plasma was harvested and assayed for TNF-α, IL-1β, IL-6 and IL-8 using Meso Scale Discovery Technology V-plex human cytokine kits according to the kit protocol."}, "IL-6": {"system": "IL-6", "experiment": "IL-1β stimulated IL-6 production in human whole blood", "assay_type": "cell-based", "experimental": "Compounds were serially diluted in 100% DMSO (Sigma-Aldrich, D2650) followed by a 10× dilution into RPMI (Gibco, 11875). After the one-hour incubation with the compounds or vehicle, 2 μL of IL-1β (R&D, 201-LB-010) in RPMI (Gibco, 11875) was added for a final concentration of 0.5 μg/mL to each well except for the no stimulus wells. […]"}, "IL-1β [5]": {"system": "IL-1β", "experiment": "LPS stimulated IL-1β production in human whole blood", "assay_type": "cell-based", "experimental": "as §10"}, "[6]": {"conditions": "Homo sapiens, calculated from IC50, combined SAD and MAD data, read-out: IC80, plasma concentration at 80% of maximal inhibition"}, "[7]": {"conditions": "Homo sapiens, inhibitory Emax model, combined SAD and MAD data, read-out: IC50, plasma concentration at half maximal inhibition"}, "[8]": {"conditions": "calculated from IC50, combined SAD and MAD data"}},
  "note": "Where “and” joins values, the source holds several entries; their conditions need not be identical. Identical values can stand only once.",
  "data": [
    {"compound": "Cc1cnc(-c2ccnc(C(C)(C)O)n2)cc1-n1c(C)cc(OCc2ncc(F)cc2F)c(Cl)c1=O", "note": "(single isomer, unassigned) [ATI-450, 3-chloro-4-((3,5-difluoropyridin-2-yl)methoxy)-2′-(2-(2-hydroxypropan-2-yl)pyrimidin-4-yl)-5′,6-dimethyl-2H-[1,4′-bipyridin]-2-one]", "values": [
      {"measurement": "IL-10 modulation", "setting": "IL-10", "value": "25-30%"},
      {"measurement": "IL-1β inhibition versus baseline", "setting": "IL-1β [1]; 50 mg BID MAD cohort", "value": "≤ 83.0", "unit": "%"},
      {"measurement": "Cmax (Multiple of IC80)", "setting": "IL-1β [1]; 50 mg BID, day 7", "value": 5.4, "unit": "x"},
      {"measurement": "Ctrough (Multiple of IC80)", "setting": "IL-1β [1]; 50 mg BID, day 7", "value": 2.2, "unit": "x"},
      {"measurement": "IC80", "setting": "IL-1β [1]; [6]", "value": 0.0408, "unit": "µg/mL"},
      {"measurement": "IC50", "setting": "IL-1β [1]; [7]", "value": 0.0102, "unit": "µg/mL"},
      {"measurement": "IC80, plasma concentration at 80% of maximal inhibition", "setting": "IL-1β [1]; [8]", "value": 0.0408, "unit": "µg/mL"},
      {"measurement": "Imax, maximum percent inhibition", "setting": "IL-1β [1]; inhibitory Emax model", "value": "74% and 74.3%"},
      {"measurement": "IC50", "setting": "IL-1α", "value": 31.1, "unit": "nM"},
      {"measurement": "IC50", "setting": "TNF-α [2]; Human Whole Blood, LPS, 100 ng/mL, 4 or 24 hr, read-out: IC50, TNF-α", "value": "29 ± 9", "unit": "nM"},
      {"measurement": "IC50", "setting": "TNF-α [2]; human whole blood, LPS 100 ng/mL, read-out: IC50, LPS-stimulated TNF-α", "value": "10 to 100", "unit": "nM"},
      {"measurement": "TNF-α inhibition versus baseline", "setting": "TNF-α [3]; 50 mg BID MAD cohort", "value": "up to 92.7%"},
      {"measurement": "Cmax (Multiple of IC80)", "setting": "TNF-α [3]; 50 mg BID, day 7", "value": 3.5, "unit": "x"},
      {"measurement": "Ctrough (Multiple of IC80)", "setting": "TNF-α [3]; 50 mg BID, day 7", "value": 1.4, "unit": "x"},
      {"measurement": "IC80", "setting": "TNF-α [3]; [6]", "value": 0.0626, "unit": "µg/mL"},
      {"measurement": "IC50", "setting": "TNF-α [3]; [7]", "value": 0.0156, "unit": "µg/mL"},
      {"measurement": "IC80, plasma concentration at 80% of maximal inhibition", "setting": "TNF-α [3]; [8]", "value": 0.0626, "unit": "µg/mL"},
      {"measurement": "IC50", "setting": "IL-1β [4]", "value": "95.6 ± 34.8", "unit": "nM"},
      {"measurement": "IC50", "setting": "IL-6; Human Whole Blood, IL-1β, 10 ng/mL, 5 hr", "value": "11.1 ± 3.8", "unit": "nM"},
      {"measurement": "IC80", "setting": "IL-6; human whole blood", "value": "0.041 ± 0.02", "unit": "µg/mL"},
      {"measurement": "IC50", "setting": "IL-1β [5]; Human Whole Blood, LPS, 100 ng/mL, 4 or 24 hr, read-out: IC50, IL-1β", "value": 6.1, "unit": "nM"},
      {"measurement": "IC50", "setting": "IL-1β [5]; human whole blood, LPS 100 ng/mL, read-out: IC50, LPS-stimulated IL-1β", "value": "10 to 100", "unit": "nM"}
    ]}
  ]
}
